Test results as given in ChEMBL document CHEMBL4627307, “One-pot synthesis of thioxo-tetrahydropyrimidine derivatives as potent β-glucuronidase inhibitor, biological evaluation, molecular docking and molecular dynamics studies” (Bioorg Med Chem, 2020).

Target: T1, Beta-glucuronidase (Homo sapiens, UniProt P08236)
T1 sequence (P08236 whole entry): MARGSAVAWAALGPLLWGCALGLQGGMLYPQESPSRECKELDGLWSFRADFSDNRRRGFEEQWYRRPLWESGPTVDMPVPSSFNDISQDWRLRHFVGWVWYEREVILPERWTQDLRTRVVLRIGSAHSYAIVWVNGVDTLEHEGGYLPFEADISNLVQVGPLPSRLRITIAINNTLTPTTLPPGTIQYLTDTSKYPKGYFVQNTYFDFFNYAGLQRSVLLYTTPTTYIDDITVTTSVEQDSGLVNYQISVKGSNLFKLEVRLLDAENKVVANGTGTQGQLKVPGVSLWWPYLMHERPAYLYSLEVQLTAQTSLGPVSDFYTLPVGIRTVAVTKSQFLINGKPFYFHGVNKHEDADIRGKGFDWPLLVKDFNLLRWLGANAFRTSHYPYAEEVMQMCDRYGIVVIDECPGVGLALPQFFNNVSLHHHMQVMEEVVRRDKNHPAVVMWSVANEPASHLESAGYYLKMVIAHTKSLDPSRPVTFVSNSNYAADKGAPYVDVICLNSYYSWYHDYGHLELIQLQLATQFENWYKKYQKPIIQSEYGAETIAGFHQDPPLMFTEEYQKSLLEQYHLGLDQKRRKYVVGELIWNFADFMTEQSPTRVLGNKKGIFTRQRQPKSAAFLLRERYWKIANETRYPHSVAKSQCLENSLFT
Assay: Inhibition of beta-glucuronidase (unknown origin) using p-nitrophenyl-beta-D-glucuronide as substrate pre-incubated for 30 mins followed by substrate addition by spectrophotometric method

`CCN(CC)C(=O)C1=C(C)N=C(S)NC1c1cccs1` (stereo unspecified) was tested, and the IC50 was 350 nM.
